Data as given in article PMC6514978, “Synthesis, Antibacterial Activities, Mode of Action and Acute Toxicity Studies of New Oxazolidinone-Fluoroquinolone Hybrids” (Molecules, 2019).
Values after ≈ are worked out from the molar mass of the structure shown. Each block holds one compound with its values, some of them ahead of it.

Key:
MRSA (13B262) = test: MIC, broth microdilution (CLSI), clinical isolate; type: cell-based; conditions: Staphylococcus aureus
Text: (§1) 6 standard strains and 3 clinical isolates were used to the preliminary evaluation of in vitro antibacterial activities of oxazolidinone-fluoroquinolone hybrids. For the further evaluation of hybrids OBP-4 and OBP-5, 263 clinical isolates including S. aureus (46), S. haemolyticus(32), S. epidermidis (10), E. faecalis (72), E. faecium (47), S. pneumoniae (13), H. parasuis (34), S. suis (9), and 8 resistant strains including MRSA, MRSE, CIP-resistant S. aureus and S. haemolyticus, VAN and quinolone-resistant S. pneumoniae, LZD-resistant E. faecalis, LZD/VAN and quinolone-resistant E. faecium were collected and tested.
(§2) Susceptibility testing of oxazolidinone-fluoroquinolone hybrids against various bacteria was performed by the broth microdilution method as outlined by the Clinical and Laboratory Standards Institute (CLSI). Three types of media, including cation-adjusted Mueller Hinton broth, Haemophilus Test Medium and cation-adjusted Mueller Hinton broth that contained 3%–5% lysed horse blood, were used to culture the corresponding bacteria. All compounds including comparator drugs were dissolved in an appropriate solvent at a concentration of 2.048 mg/mL and then serially diluted two-fold to provide the required concentrations. A final inoculum of 5 × 10^5 CFU/mL was used and plates were read after incubation for 16–24 h at 35 °C. […] Standard quality control strains (ATCC) were included throughout. Each determination was repeated in triplicate.

[1] = test system: S. agalactiae^R (13B317), levofloxacin-resistant S. agalactiae; test: MIC, broth microdilution (CLSI), clinical isolate; type: cell-based; conditions: Streptococcus agalactiae; levofloxacin-resistant S. agalactiae (13B317)
Text: as §1, §2

VRE (13B330) = test: MIC, broth microdilution (CLSI), clinical isolate; type: cell-based, vancomycin-resistant enterococcus; conditions: Enterococcus
Text: as §1, §2

E. coli (ATCC25922) = test: MIC, broth microdilution (CLSI), standard strain; type: cell-based; conditions: Escherichia coli; E. coli (ATCC25922); read-out: MIC
Text: as §1, §2

E. faecalis (ATCC29212) = test: MIC, broth microdilution (CLSI), standard strain; type: cell-based; conditions: Enterococcus faecalis; E. faecalis (ATCC29212); read-out: MIC
Text: as §1, §2

[2] = test system: H. influenzae (ATCC49247); test: MIC, broth microdilution (CLSI), standard strain; type: cell-based; conditions: Haemophilus influenzae
Text: as §1, §2

[3] = test system: P. Aeruginosa (ATCC27853); test: MIC, broth microdilution (CLSI), standard strain; type: cell-based; conditions: Pseudomonas aeruginosa; P. Aeruginosa (ATCC27853); read-out: MIC
Text: as §1, §2

S. aureus (ATCC29213) = test: MIC, broth microdilution (CLSI), standard strain; type: cell-based; conditions: Staphylococcus aureus
Text: as §1, §2

[4] = test system: S. pneumoniae (ATCC49619); test: MIC, broth microdilution (CLSI), standard strain; type: cell-based; conditions: Streptococcus pneumoniae
Text: as §1, §2

[5] = test system: S. aureus (46) clinical isolates; test: Susceptibility of clinical isolates (MIC); type: cell-based, Staphylococcus aureus
Protocol: as §2, with “All compounds including comparator drugs were dissolved in an appropriate solvent at a concentration of 2.048 mg/mL and then serially diluted two-fold to provide the required concentrations.” left out

[6] = test system: S. haemolyticus (32) clinical isolates; test: Susceptibility of clinical isolates (MIC); type: cell-based, Staphylococcus haemolyticus
Protocol: as §2, with “All compounds including comparator drugs were dissolved in an appropriate solvent at a concentration of 2.048 mg/mL and then serially diluted two-fold to provide the required concentrations.” left out

[7] = test system: S. epidermidis (10) clinical isolates; test: Susceptibility of clinical isolates (MIC); type: cell-based, Staphylococcus epidermidis
Protocol: as §2, with “All compounds including comparator drugs were dissolved in an appropriate solvent at a concentration of 2.048 mg/mL and then serially diluted two-fold to provide the required concentrations.” left out

[8] = test system: S. suis (9) clinical isolates; test: Susceptibility of clinical isolates (MIC); type: cell-based, Streptococcus suis; conditions: Streptococcus suis
Protocol: as §2, with “All compounds including comparator drugs were dissolved in an appropriate solvent at a concentration of 2.048 mg/mL and then serially diluted two-fold to provide the required concentrations.” left out

[9] = test system: S. pneumoniae (13) clinical isolates; test: Susceptibility of clinical isolates (MIC); type: cell-based, Streptococcus pneumoniae
Protocol: as §2, with “All compounds including comparator drugs were dissolved in an appropriate solvent at a concentration of 2.048 mg/mL and then serially diluted two-fold to provide the required concentrations.” left out

[10] = test system: E. faecium (47) clinical isolates; test: Susceptibility of clinical isolates (MIC); type: cell-based, Enterococcus faecium
Protocol: as §2, with “All compounds including comparator drugs were dissolved in an appropriate solvent at a concentration of 2.048 mg/mL and then serially diluted two-fold to provide the required concentrations.” left out

[11] = test system: H. parasuis (34) clinical isolates; test: Susceptibility of clinical isolates (MIC); type: cell-based, Haemophilus parasuis; conditions: Glaesserella parasuis
Protocol: as §2, with “All compounds including comparator drugs were dissolved in an appropriate solvent at a concentration of 2.048 mg/mL and then serially diluted two-fold to provide the required concentrations.” left out

MRSE = test: MIC against drug-resistant strain; type: cell-based, S. epidermidis; conditions: Staphylococcus epidermidis
Protocol: (§3) 6 standard strains and 3 clinical isolates were used to the preliminary evaluation of in vitro antibacterial activities of oxazolidinone-fluoroquinolone hybrids.
as §2, with “All compounds including comparator drugs were dissolved in an appropriate solvent at a concentration of 2.048 mg/mL and then serially diluted two-fold to provide the required concentrations.” left out

[12] = test system: LZD-resistant E. faecalis; test: microbe, parasite or virus in culture; type: cell-based; conditions: Enterococcus faecalis
Protocol: as §3
as §2, with “All compounds including comparator drugs were dissolved in an appropriate solvent at a concentration of 2.048 mg/mL and then serially diluted two-fold to provide the required concentrations.” left out

CIP-resistant S. aureus = test: MIC against drug-resistant strain; type: cell-based; conditions: Staphylococcus aureus
Protocol: as §3
as §2, with “All compounds including comparator drugs were dissolved in an appropriate solvent at a concentration of 2.048 mg/mL and then serially diluted two-fold to provide the required concentrations.” left out

[13] = test system: CIP-resistant S. haemolyticus; test: MIC against drug-resistant strain; type: cell-based; conditions: Staphylococcus haemolyticus
Protocol: as §3
as §2, with “All compounds including comparator drugs were dissolved in an appropriate solvent at a concentration of 2.048 mg/mL and then serially diluted two-fold to provide the required concentrations.” left out

[14] = test system: LZD and quinolone-resistant E. faecium; test: MIC against drug-resistant strain; type: cell-based; conditions: Enterococcus faecium
Protocol: as §3
as §2, with “All compounds including comparator drugs were dissolved in an appropriate solvent at a concentration of 2.048 mg/mL and then serially diluted two-fold to provide the required concentrations.” left out

MRSA = test: MIC against drug-resistant strain; type: cell-based; conditions: Staphylococcus aureus
Protocol: as §3
as §2, with “All compounds including comparator drugs were dissolved in an appropriate solvent at a concentration of 2.048 mg/mL and then serially diluted two-fold to provide the required concentrations.” left out

[15] = test system: VAN and quinolone-resistant E. faecium; test: MIC against drug-resistant strain; type: cell-based; conditions: Enterococcus faecium
Protocol: as §3
as §2, with “All compounds including comparator drugs were dissolved in an appropriate solvent at a concentration of 2.048 mg/mL and then serially diluted two-fold to provide the required concentrations.” left out

[16] = test system: VAN and quinolone-resistant S. pneumoniae; test: MIC against drug-resistant strain; type: cell-based; conditions: Streptococcus pneumoniae
Protocol: as §3
as §2, with “All compounds including comparator drugs were dissolved in an appropriate solvent at a concentration of 2.048 mg/mL and then serially diluted two-fold to provide the required concentrations.” left out

MIC (MRSA (13B262)): 64 µg/mL (≈ 112 µM)
MIC [1]: 2 µg/mL (≈ 3.51 µM)
MIC (VRE (13B330)): 64 µg/mL (≈ 112 µM)
MIC (E. coli (ATCC25922)): 1 µg/mL (≈ 1.76 µM)
MIC (E. faecalis (ATCC29212)): 4 µg/mL (≈ 7.02 µM)
MIC [2]: 0.016 µg/mL (≈ 0.0281 µM)
MIC [3]: 16 µg/mL (≈ 28.1 µM)
MIC (S. aureus (ATCC29213)): 0.062 µg/mL (≈ 0.109 µM)
MIC [4]: 0.5 µg/mL (≈ 0.878 µM)
Structure (SMILES): CN1COc2c(N3CC4C(C3)C4Nc3ccc(N4C[C@H](CO)OC4=O)cc3F)c(F)cc3c(=O)c(C(=O)O)cn1c23 (some centres unmarked) [OBP-6]

MIC (MRSA (13B262)): 128 µg/mL (≈ 232 µM)
MIC [1]: 4 µg/mL (≈ 7.24 µM)
MIC (VRE (13B330)): 128 µg/mL (≈ 232 µM)
MIC (E. coli (ATCC25922)): 0.5 µg/mL (≈ 0.905 µM)
MIC (E. faecalis (ATCC29212)): 1 µg/mL (≈ 1.81 µM)
MIC [2]: 0.031 µg/mL (≈ 0.0561 µM)
MIC [3]: 64 µg/mL (≈ 116 µM)
MIC (S. aureus (ATCC29213)): 0.25 µg/mL (≈ 0.452 µM)
MIC [4]: 2 µg/mL (≈ 3.62 µM)
Structure (SMILES): O=C(O)c1cn(C2CC2)c2cc(N3CC4C(C3)C4Nc3ccc(N4C[C@H](CO)OC4=O)cc3F)c(F)cc2c1=O (some centres unmarked) [OBP-7]

Structure (SMILES): CN[C@H](CC(C)C)C(=O)N[C@H]1C(=O)N[C@@H](CC(N)=O)C(=O)N[C@H]2C(=O)N[C@H]3C(=O)N[C@H](C(=O)N[C@H](C(=O)O)c4cc(O)cc(O)c4-c4cc3ccc4O)[C@H](O)c3ccc(c(Cl)c3)Oc3cc2cc(c3O[C@@H]2O[C@H](CO)[C@@H](O)[C@H](O)[C@H]2O[C@H]2C[C@](C)(N)[C@H](O)[C@H](C)O2)Oc2ccc(cc2Cl)[C@H]1O [VAN, vancomycin]
CLSI %S (susceptible) ([5]; S. aureus clinical isolates, CLSI criteria): 100.0/- %
MIC50 ([5]; Staphylococcus aureus): 0.5 µg/mL (≈ 0.345 µM)
MIC90 ([5]; Staphylococcus aureus): 0.5 µg/mL (≈ 0.345 µM)
MIC ([5]; Staphylococcus aureus, read-out: MIC Range): 0.25 to 0.5 µg/mL (≈ 0.173 to 0.345 µM)
CLSI %S (susceptible) ([6]; S. haemolyticus clinical isolates, CLSI criteria): 96.2/- %
MIC50 ([6]; Staphylococcus haemolyticus): 0.5 µg/mL (≈ 0.345 µM)
MIC90 ([6]; Staphylococcus haemolyticus): 2 µg/mL (≈ 1.38 µM)
MIC ([6]; Staphylococcus haemolyticus, read-out: MIC Range): 0.0625 to 4 µg/mL (≈ 0.0431 to 2.76 µM)
CLSI %S (susceptible) ([7]; S. epidermidis clinical isolates, CLSI criteria): 100.0/- %
MIC50 ([7]; Staphylococcus epidermidis): 1 µg/mL (≈ 0.69 µM)
MIC90 ([7]; Staphylococcus epidermidis): 2 µg/mL (≈ 1.38 µM)
MIC ([7]; Staphylococcus epidermidis, read-out: MIC Range): 1 to 2 µg/mL (≈ 0.69 to 1.38 µM)
MIC50 [8]: 0.25 µg/mL (≈ 0.173 µM)
MIC90 [8]: 2 µg/mL (≈ 1.38 µM)
MIC ([8]; read-out: MIC Range): 0.125 to 2 µg/mL (≈ 0.0863 to 1.38 µM)
CLSI %S (susceptible) ([9]; S. pneumoniae clinical isolates, CLSI criteria): 53.8/- %
MIC50 ([9]; Streptococcus pneumoniae): 1 µg/mL (≈ 0.69 µM)
MIC90 ([9]; Streptococcus pneumoniae): 32 µg/mL (≈ 22.1 µM)
CLSI %S (susceptible) ([10]; E. faecium clinical isolates, CLSI criteria): 100.0/- %
MIC Range ([10]; E. faecium, 47 clinical isolates): 0.5 to 4 µg/mL
MIC50 ([10]; Enterococcus faecium): 2 µg/mL (≈ 1.38 µM)
MIC90 ([10]; Enterococcus faecium): 4 µg/mL (≈ 2.76 µM)
MIC50 [11]: 8 µg/mL (≈ 5.52 µM)
MIC90 [11]: > 32 µg/mL
MIC (MRSE): 1 µg/mL (≈ 0.69 µM)
MIC [12]: 2 µg/mL (≈ 1.38 µM)
MIC (CIP-resistant S. aureus): 0.25 µg/mL (≈ 0.173 µM)
MIC [13]: 2 µg/mL (≈ 1.38 µM)
MIC [14]: 4 µg/mL (≈ 2.76 µM)
MIC (MRSA): 1 µg/mL (≈ 0.69 µM)
MIC [15]: 16 µg/mL (≈ 11 µM)
MIC [16]: > 32 µg/mL
